Measured values reported in paper PMC4820706, “Discovery of a small-molecule binder of the oncoprotein gankyrin that modulates gankyrin activity in the cell” (Scientific Reports, 2016).

Legend:
gankyrin [1] = target: T1, gankyrin (Homo sapiens, UniProt O75832); experiment: ITC (Kd […], stoichiometry […]); also label-free MST (Kd […]), thermal shift, 1H-15N HSQC NMR; format: binding
T1 construct: gene PSMD10; His-tagged full-length human gankyrin
T1 sequence (O75832 1-226): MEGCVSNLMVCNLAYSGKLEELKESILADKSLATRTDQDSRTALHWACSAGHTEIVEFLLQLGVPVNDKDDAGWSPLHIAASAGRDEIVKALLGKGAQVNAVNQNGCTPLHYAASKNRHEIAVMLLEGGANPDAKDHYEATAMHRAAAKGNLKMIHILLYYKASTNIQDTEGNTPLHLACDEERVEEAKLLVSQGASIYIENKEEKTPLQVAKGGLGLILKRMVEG

gankyrin [2] = target: T1, gankyrin; experiment: ITC; format: binding

Kd (gankyrin [1]) | Kd (gankyrin [2]) | SMILES
0.58 ± 0.07 µM | – | COC(=O)c1ccc(-n2cc(CCCOS(=O)(=O)c3ccc(C)cc3)nn2)cc1 [cjoc42]
– | ~10 µM | CCCNC(=O)c1ccc(-n2cc(CCCNS(=O)(=O)c3ccc(C)cc3)nn2)cc1 [compound 8]
– | ~56 µM | COC(=O)c1ccc(-n2cc(CNS(=O)(=O)c3ccc4ccccc4c3)nn2)cc1 [compound 12]
